Experimental data as given in patent publication US20210221785A1, “AMINO-PYRIMIDONYL DERIVATIVES, A PROCESS FOR THEIR PREPARATION AND PHARMACEUTICAL COMPOSITIONS CONTAINING THEM” (LES LABORATOIRES SERVIER, priority 2018, published 2021).
Structures can show the parent of a compound that is named as a salt.

Experiments:
[1] = tested on: Z138 mantle cell lymphoma tumour cell lines; assay: In vitro cytotoxicity, MTT assay; assay type: cell-based; conditions: Z138 cells exposed to the test compounds for 96 hours, cell viability vs DMSO treated cells
Method in brief: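 Z138 cells exposed to compounds for 96 hours, then MTT added for 4 hours. Viable cells quantified from formazan absorbance at 540 nm.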

[2] = target: T1, His-His-USP7 (aa208-560, |C315A|) (Homo sapiens, UniProt Q93009, C315A); assay: Evaluation of the inhibition of USP7 by the Fluorescence Intensity (FLINT) readings; assay type: biochemical; conditions: 0.25 nM His-His-USP7, compound incubated 60 minutes at 30° C., 500 nM Ubiquitin-Rhodamine-110 substrate; 50% reduction in kinetic rate
T1 construct: His-His-USP7 (aa208-560, |C315A|); His-His (N)
Method in brief: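 IC50 reflects 50% reduction in kinetic rate of rhodamine-110 release (Ex485/Em535, reads every 3 min over 21 min), normalised to DMSO and no-enzyme controls, from an 11-point 4-parameter fit. Substrate is 500 nM Ub-Rh110, added after 60 min, 30 °C preincubation of compound with 0.25 nM USP7 aa208–560 C315A. Buffer is Bicine pH 8.0 with 10% DMSO.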

T1 sequence (Q93009 208-560 C315A): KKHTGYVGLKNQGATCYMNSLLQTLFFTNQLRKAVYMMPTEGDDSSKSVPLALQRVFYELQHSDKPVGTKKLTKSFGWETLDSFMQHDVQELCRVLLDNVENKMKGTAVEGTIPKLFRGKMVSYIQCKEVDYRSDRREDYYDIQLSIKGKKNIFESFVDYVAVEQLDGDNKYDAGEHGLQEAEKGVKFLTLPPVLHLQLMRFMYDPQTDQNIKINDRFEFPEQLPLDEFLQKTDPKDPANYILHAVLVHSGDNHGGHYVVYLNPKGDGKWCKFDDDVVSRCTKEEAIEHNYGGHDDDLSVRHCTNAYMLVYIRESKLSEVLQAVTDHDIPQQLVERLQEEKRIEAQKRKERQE

Row | Compound | IC50 [2] [nM] | IC50 ([1]; Homo sapiens, Z-138, 96 h) [µM] | IC50 [1] [µM]
1 | Nc1c(Oc2ccccc2)ncn(CC2(O)CCN(C(=O)[C@@H]3CCC(F)(F)C[C@H]3n3cccc3)CC2)c1=O [Example 83, 5-amino-3-({1-[(1R,2R)-4,4-difluoro-2-(1H-pyrrol-1-yl)cyclohexane-1-carbonyl]-4-hydroxypiperidin-4-yl}methyl)-6-phenoxypyrimidin-4(3H)-one] | 220 | 0.327 | –
2 | Nc1c(Oc2ccc(CNC3CC3)cc2)ncn(CC2(O)CCN(C(=O)[C@@H]3CCC(F)(F)C[C@H]3c3ccccc3)CC2)c1=O [Example 77] | 25 | 0.156 | –
3 | NCc1ccc(Oc2ncn(C[C@@]3(O)CCN(C(=O)[C@@H]4CCC(F)(F)C[C@H]4c4ccccc4)CC3(F)F)c(=O)c2N)cc1 [Example 90, 5-amino-6-[4-(aminomethyl)phenoxy]-3-({(4S)-1-[(1R,2R)-4,4-difluoro-2-phenylcyclohexane-1-carbonyl]-3,3-difluoro-4-hydroxypiperidin-4-yl}methyl)pyrimidin-4(3H)-one] | 3.9 | 0.16 | –
4 | NCc1ccc(Oc2ncn(CC3(O)CCN(C(=O)[C@@H]4CCC(F)(F)C[C@H]4c4ccccc4)CC3)c(=O)c2N)cc1 [Example 59, 5-amino-6-[4-(aminomethyl)phenoxy]-3-({1-[(1R,2R)-4,4-difluoro-2-phenylcyclohexane-1-carbonyl]-4-hydroxypiperidin-4-yl}methyl)pyrimidin-4(3H)-one] | 4.2 | 0.064 | –
5 | Nc1c(Oc2ccc(Cl)cc2)ncn(CC2(O)CCN(C(=O)[C@@H]3CCC(F)(F)C[C@H]3c3ccccc3)CC2)c1=O [Example 11, 5-amino-6-(4-chlorophenoxy)-3-({1-[(1R,2R)-4,4-difluoro-2-phenylcyclohexane-1-carbonyl]-4-hydroxypiperidin-4-yl}methyl)pyrimidin-4(3H)-one] | 58.7 | 0.197 | –
6 | C#CC1(F)CC[C@@H](C(=O)N2CCC(O)(Cn3cnc(Oc4ccc(F)cc4)c(N)c3=O)CC2)[C@H](c2ccccc2)C1 (relative stereo) [Example 93, rel-5-amino-3-({1-[(1R,2R)-4-ethynyl-4-fluoro-2-phenyl-cyclohexanecarbonyl]-4-hydroxypiperidin-4-yl}methyI)-6-(4-fluorophenoxy)-3,4-dihydropyrimidin-4-one] | 66.3 | 0.0411 | –
7 | Nc1c(Oc2ccc3c(c2)CNCC3)ncn(CC2(O)CCN(C(=O)[C@@H]3CCC(F)(F)C[C@H]3c3ccccc3)CC2)c1=O [Example 26, 5-amino-3-({1-[(1R,2R)-4,4-difluoro-2-phenylcyclohexane-1-carbonyl]-4-hydroxypiperidin-4-yl}methyl)-6-[(1,2,3,4-tetrahydroisoquinolin-7-yl)oxy]pyrimidin-4(3H)-one, hydrochloride] | 20 | 0.406 | –
8 | COc1cc(O)cc(Oc2ncn(CC3(O)CCN(C(=O)[C@@H]4CCC(F)(F)C[C@H]4c4ccccc4)CC3)c(=O)c2N)c1 [Example 15, 5-amino-3-({1-[(1R,2R)-4,4-difluoro-2-phenylcyclohexane-1-carbonyl]-4-hydroxypiperidin-4-yl}methyl)-6-(3-hydroxy-5-methoxyphenoxy)pyrimidin-4(3H)-one] | 23.5 | 0.0195 | –
9 | Nc1c(Oc2ccc(F)cc2)ncn(CC2(O)CCN(C(=O)[C@@H]3CC[C@](O)(Cc4ccccn4)C[C@H]3c3ccccc3)CC2)c1=O (relative stereo) [Example 96, rel-5-amino-6-(4-fluorophenoxy)-3-({4-hydroxy-1-[(1R,2R,4R)-4-hydroxy-2-phenyl-4-](pyridin-2-yl)methyl]cyclohexanecarbonyl]piperidin-4-yl}methyl)-3,4-dihydropyrimidin-4-one] | 109 | 0.116 | –
10 | Nc1c(Oc2ccc(CNCc3ccccc3)cc2)ncn(CC2(O)CCN(C(=O)[C@@H]3CCC(F)(F)C[C@H]3c3ccccc3)CC2)c1=O [Example 76, 5-amino-6-{4-[(benzylamino)methyl]phenoxy}-3-({1-[(1R,2R)-4,4-difluoro-2-phenylcyclohexane-1-carbonyl]-4-hydroxypiperidin-4-yl}methyl)pyrimidin-4(3H)-one] | 15 | 0.4 | –
11 | NC(=O)CCc1ccc(Oc2ncn(CC3(O)CCN(C(=O)[C@@H]4CCC(F)(F)C[C@H]4c4ccccc4)CC3)c(=O)c2N)cc1 [Example 67, 3-(4-{[5-amino-1-({1-[(1R,2R)-4,4-difluoro-2-phenylcyclohexane-1-carbonyl]-4-hydroxypiperidin-4-yl}methyl)-6-oxo-1,6-dihydropyrimidin-4-yl]oxy}phenyl)propanamide] | 75 | 0.668 | –
12 | NCc1ccc(Oc2ncn(CC3(O)CCN(C(=O)[C@@H]4CCC(F)(F)C[C@H]4c4ccccc4)CC3)c(=O)c2N)cc1Cl [Example 66, 5-amino-6-[4-(aminomethyl)-3-chlorophenoxy]-3-({1-[(1R,2R)-4,4-difluoro-2-phenylcyclohexane-1-carbonyl]-4-hydroxypiperidin-4-yl}methyl)pyrimidin-4(3H)-one] | 11 | 0.301 | –
13 | 5-amino-6-(3-chlorophenyl)-3-({1-[(1R,2R)-4,4-difluoro-2-phenylcyclohexane-1-carbonyl]-4-hydroxypiperidin-4-yl}methyl)pyrimidin-4(3H)-one [Example 13] | 97.5 | – | 0.178

Continued, in another order:

Row | IC50 [2] [nM] | Compound | IC50 ([1]; Homo sapiens, Z-138, 96 h) [µM] | IC50 [1] [µM]
14 | 37.7 | Cc1cnc(C#CC2(F)CCC(C(=O)N3CCC(O)(Cn4cnc(Oc5ccc(F)cc5)c(N)c4=O)CC3)C(c3ccccc3)C2)cn1 [Example 150, 5-amino-3-({1-[1R,2R,4S)-4-fluoro-4-[2-(5-methylpyrazin-2-yl)ethynyl]-2-phenylcyclohexanecarbonyl]-4-hydroxypiperidin-4-yl}methyl)-6-(4-fluorophenoxy)-3,4-dihydropyrimidin-4-one] | 0.0258 | –
15 | 14.6 | COc1cnnc(C#C[C@@]2(OC)CC[C@@H](C(=O)N3CC[C@](O)(Cn4cnc(Oc5ccc(F)cc5)c(N)c4=O)C(F)(F)C3)C(c3ccccc3)C2)c1 (stereo partly drawn) [Example 173, 5-amino-3-{[(4S)-3,3-difluoro-4-hydroxy-1-[(1R,4R)-4-methoxy-4-[2-(5-methoxypyridazin-3-yl)ethynyl]-2-phenylcyclohexanecarbonyl]piperidin-4-yl]methyl}-6-(4-fluorophenoxy)-3,4-dihydropyrimidin-4-one] | 0.00521 | –
16 | 82.2 | N#CCc1ccc(Oc2ncn(CC3(O)CCN(C(=O)[C@@H]4CCC(F)(F)C[C@H]4c4ccccc4)CC3)c(=O)c2N)cc1 [Example 117, (4-{[5-amino-1-({1-[(1R,2R)-4,4-difluoro-2-phenylcyclohexane-1-carbonyl]-4-hydroxypiperidin-4-yl}methyl)-6-oxo-1,6-dihydropyrimidin-4-yl]oxy}phenyl)acetonitrile] | 0.617 | –
17 | 3.29 | Nc1c(Oc2ccc(F)cc2)ncn(CC2(O)CCN(C(=O)[C@@H]3CC[C@](F)(C#Cc4ccccn4)C[C@H]3c3ccccc3)CC2)c1=O [Example 132, 5-amino-3-[(1-{[(1R,2R4R)-4-fluoro-2-phenyl-4-[2-(pyridin-2-yl)ethynyl]cyclohexyl]carbonyl}-4-hydroxypiperidin-4-yl)methyl]-6-(4-fluorophenoxy)pyrimidin-4-one] | 0.00214 | –
18 | 39.8 | CO[C@]1(C#Cc2nnccc2C)CC[C@@H](C(=O)N2CC[C@](O)(Cn3cnc(Oc4ccc(F)cc4)c(N)c3=O)C(F)(F)C2)[C@H](c2ccccc2)C1 [Example 170, 5-amino-3-{[(4S)-3,3-difluoro-4-hydroxy-1-[(1R,2R,4R)-4-methoxy-4-[2-(4-methylpyridazin-3-yl)ethynyl]-2-phenylcyclohexanecarbonyl]piperidin-4-yl]methyl}-6-(4-fluorophenoxy)-3,4-dihydropyrimidin-4-one] | 0.0219 | –
19 | 40.3 | Nc1c(Oc2ccc(F)c(O)c2)ncn(C[C@@]2(O)CCN(C(=O)[C@@H]3CCC(F)(F)C[C@H]3c3ccccc3)CC2(F)F)c1=O [Example 109, 5-amino-3-({(4S)-1-[(1R,2R)-4,4-fluoro-2-phenylcyclohexane-1-carbonyl]-3,3-difluoro-4-hydroxypiperidin-4-yl}methyl)-6-(4-fluoro-3-hydroxyphenoxy)pyrimidin-4(3H)-one] | – | 0.0155
20 | 38.2 | Nc1c(Oc2ccc(F)cc2)ncn(CC2(O)CCN(C(=O)[C@@H]3CC[C@@](O)(Cc4ccccn4)C[C@H]3c3ccccc3)CC2)c1=O (relative stereo) [Example 97, rel-5-amino-6-(4-fluorophenoxy)-3-[(4-hydroxy-1-{[(1R,2R,4S)-4-hydroxy-2-phenyl-4-(pyridin-2-ylmethyl)cyclohexyl]carbonyl}piperidin-4-yl)methyl]pyrimidin-4-one] | 0.497 | –
21 | 3.08 | Nc1c(Oc2ccc(C3CCCCN3)cc2)ncn(CC2(O)CCN(C(=O)[C@@H]3CCC(F)(F)C[C@H]3c3ccccc3)CC2)c1=O (stereo partly drawn) [Example 121, 5-amino-3-({1-[(1R,2R)-4,4-difluoro-2-phenylcyclohexane-1-carbonyl]-4-hydroxypiperidin-4-yl}methyl)-6-[4-(piperidin-2-yl)phenoxy]pyrimidin-4(3H)-one] | 0.546 | –
22 | 20.3 | Nc1c(Oc2ccc(F)cc2)ncn(CC2(O)CCN(C(=O)[C@@H]3CC[C@](F)(C#Cc4cnccn4)C[C@H]3c3ccccc3)CC2)c1=O [Example 138, 5-amino-3-({1-[(1R,2R,4R)-4-fluoro-2-phenyl-4-[2-(pyrazin-2-yl)ethynyl]cyclohexanecarbonyl]-4-hydroxypiperidin-4-yl}methyl)-6-(4-fluorophenoxy)-3,4-dihydropyrimidin-4-one] | 0.00657 | –
